Where a name gives a salt, the structure may show the parent alone.
Tests used:
[1] = Test of maintenance in solution at pH=6.7, active principle alone; type: physicochemical; conditions: absence of surfactant; pH 6.7, 2 hours at 37° C.
Method: Solutions were prepared containing 2 mg/ml of dronedarone. hydrochloride in hydrogenphosphate (NaH2PO4 buffered medium at pH=4.5 for 2 hours at 37° C. in the presence or absence of x % of nonionic hydrophilic surfactant to be studied, calculated on a weight basis relative to the active principle in base form.
This solution was then diluted to 1/10th in a neutral phosphate medium (Na2HPO4+NaH2PO4), the pH of the final solution being 6.7.
After 2 hours at 37° C., the solution was filtered through an Acrodisc brand 5 μm filter and the active principle in solution was assayed by UV spectrometry.

[2] = Behaviour in the presence of bile salts; type: physicochemical; conditions: bile salts such as sodium taurocholate
physchem = conditions: aqueous medium
[3] = Dissolution at pH=4 and dilution to 1/10 with buffer of pH=7; type: physicochemical
Method: Thus, it is possible to dissolve 400 mg of dronedarone hydrochloride in 200 ml of aqueous medium buffered to pH=4 (aqueous 0.1 M NaH2PO4 solution).
On the other hand, in this medium diluted to 1/10 with an aqueous solution buffered to pH=7 (aqueous 0.1 M Na2HPO4 solution), dronedarone hydro-chloride precipitates (pH of the final medium: 6.7).

[4] = Bioavailability after intake of food, man; type: in vivo; conditions: in particular fats
From the text: (§1) This behaviour in intestinal medium probably makes it possible to explain in vivo the low bio-availability of dronedarone hydrochloride and the differences observed after administration with or without food, since it has been observed that the bio-availability of dronedarone hydrochloride in dogs and in man is increased after the intake of food, in particular fats, which can greatly modify the precipitation kinetics of this active principle and also help to place it in emulsion form.

[5] = Bioavailability after intake of food, dogs; type: in vivo; conditions: in particular fats
From the text: as §1

% of dronedarone hydrochloride in solution [1]: 5% | behaviour in the presence of bile salts [2]: precipitates | solubility (physchem; aqueous buffer): 1000 to 2000 µg/mL | solubility (physchem; pH 7, aqueous buffer): 10 µg/mL | behaviour on dilution to 1/10 with aqueous solution buffered to pH=7 ([3]; 0.1 M Na2HPO4, pH of the final medium 6.7): precipitates | amount that can be dissolved in 200 ml of aqueous medium ([3]; buffered to pH=4 (aqueous 0.1 M NaH2PO4 solution)): 400 mg | bioavailability after the intake of food [4]: increased | bioavailability after the intake of food [5]: increased
SMILES: CCCCc1oc2ccc(NS(C)(=O)=O)cc2c1C(=O)c1ccc(OCCCN(CCCC)CCCC)cc1 [dronedarone hydrochloride, 2-n-butyl-3-[4-(3-di-n-butyl-aminopropoxy)benzoyl]-5-methylsul-phonamidobenzofuran]

Source: patent US20160338989A1, “SOLID PHARMACEUTICAL COMPOSITIONS CONTAINING BENZOFURAN DERIVATIVES” (SANOFI, priority 1997, published 2016)
